Experimental data as given in the supplement of paper PMC7806825.

Tested on: McpC ligand-binding domain (Salmonella Typhimurium SL1344)
Test: protein melting temperature (Tm) in presence of compound (degrees C); higher = more thermal stabilisation (possible ligand binding)
Details: compound stock concentration: 10-20 mM, 2 uL in 10 uL reaction

For N[C@@H](CS)C(=O)NCC(=O)O [Cys-Gly], which protein melting temperature (Biolog plate: PM04A) is on record?
Its protein melting temperature is 42.9.

How did the protein melting temperature (Biolog plate: PM03B) turn out when NCCc1c[nH]cn1 [Histamine] was run?
Its protein melting temperature is 45.1.

For Cc1ncc(CO)c(C=O)c1O [Pyridoxal], which protein melting temperature (Biolog plate: PM05) is on record?
Its protein melting temperature is 43.2.

With Nc1ncnc2c1ncn2[C@H]1C[C@H](O)[C@@H](CO)O1 [2`-Deoxyadenosine] as the compound, how does the protein melting temperature (Biolog plate: PM01) read?
The protein melting temperature was 43.9.

What about the protein melting temperature (Biolog plate: PM05) of the same compound?
Its protein melting temperature is 44.

CS(=O)(=O)O [Methane Sulfonic acid] was tested. Which protein melting temperature (Biolog plate: PM04A) did it give?
Its protein melting temperature is 44.4.

With O=C(O)c1ccccc1O [2-Hydroxybenzoic acid] as the compound, how does the protein melting temperature (Biolog plate: PM02A) read?
Its protein melting temperature is 45.4.

Which protein melting temperature (Biolog plate: PM05) does the source give for C[N+](C)(C)CC(O)CC(=O)[O-] (racemic) [DL-Carnitine] here?
Its protein melting temperature is 43.7.

Which protein melting temperature (Biolog plate: PM01) does the source give for COC(=O)C(C)=O [Methylpyruvate] here?
Its protein melting temperature is 44.9.

How did the protein melting temperature (Biolog plate: PM02A) turn out when OC[C@H]1O[C@@H](Oc2ccc(O)cc2)[C@H](O)[C@@H](O)[C@@H]1O [Arbutin] was run?
Its protein melting temperature is 43.7.

With OCC(O)C(O)C(O)CO (stereo not given) [Adonitol] as the compound, how does the protein melting temperature (Biolog plate: PM01) read?
Its protein melting temperature is 44.8.

How did the protein melting temperature (Biolog plate: PM05) turn out when O=C(O)c1cccnc1C(=O)O [Quinolinic acid] was run?
The protein melting temperature was 43.8.

For CC1=CC(=O)c2ccccc2C1=O [Menadione], which protein melting temperature (Biolog plate: PM05) is on record?
The protein melting temperature was 42.6.

How did the protein melting temperature (Biolog plate: PM04A) turn out when O=PO [Hypophosphite] was run?
Its protein melting temperature is 44.1.

With CCCCCCCC/C=C\CCCCCCCC(=O)OCCOCC(OCCO)C1OCC(OCCO)C1OCCO (stereo not given) [Tween 80] as the compound, how does the protein melting temperature (Biolog plate: PM01) read?
Its protein melting temperature is 45.3.

What about the protein melting temperature (Biolog plate: PM05) of the same compound?
Its protein melting temperature is 43.9.

How did the protein melting temperature (Biolog plate: PM01) turn out when CO[C@@H]1O[C@H](CO)[C@@H](O)[C@H](O)[C@H]1O [b-Methyl-D-Glucoside] was run?
Its protein melting temperature is 44.7.

With NCC(=O)N[C@@H](CC(=O)O)C(=O)O [Gly-Asp] as the compound, how does the protein melting temperature (Biolog plate: PM01) read?
The protein melting temperature was 44.4.

Which protein melting temperature (Biolog plate: PM03B) does the source give for NC(=O)NC(N)=O [Biuret] here?
Its protein melting temperature is 44.2.

How did the protein melting temperature (Biolog plate: PM01) turn out when NCC(=O)N1CCC[C@H]1C(=O)O [Gly-Pro] was run?
Its protein melting temperature is 44.2.

With O=C(O)c1cc(=O)[nH]c(=O)[nH]1 [Orotic acid] as the compound, how does the protein melting temperature (Biolog plate: PM05) read?
The protein melting temperature was 43.

CCSCCC(N)C(=O)O (racemic) [DL-Ethionine] was tested. Which protein melting temperature (Biolog plate: PM04A) did it give?
The protein melting temperature was 43.9.

With OC[C@@H](O)[C@@H](O[C@H]1O[C@H](CO)[C@@H](O)[C@H](O)[C@H]1O)[C@H](O)[C@@H](O)CO [Maltitol] as the compound, how does the protein melting temperature (Biolog plate: PM02A) read?
The protein melting temperature was 44.5.

How did the protein melting temperature (Biolog plate: PM04A) turn out when Nc1ncnc2c1ncn2[C@@H]1O[C@H](CO)[C@@H](O)[C@H]1OP(=O)(O)O [Adenosine 2`-Monophosphate] was run?
The protein melting temperature was 43.8.

With C[C@H](N)C(=O)N[C@@H](CC(=O)O)C(=O)O [Ala-Asp] as the compound, how does the protein melting temperature (Biolog plate: PM03B) read?
The protein melting temperature was 45.

With NCCCNCCCCNCCCN [Spermine] as the compound, how does the protein melting temperature (Biolog plate: PM05) read?
Its protein melting temperature is 43.8.

With CCCCCCCCCC(=O)O [Capric acid] as the compound, how does the protein melting temperature (Biolog plate: PM02A) read?
Its protein melting temperature is 42.4.

With CN(CC(=O)O)C(=N)NP(=O)(O)O [Phosphocreatine] as the compound, how does the protein melting temperature (Biolog plate: PM04A) read?
The protein melting temperature was 44.3.

Which results are given for N[C@@H](Cc1c[nH]c2ccccc12)C(=O)O [L-Tryptophan]?
protein melting temperature (Biolog plate: PM03B): 44.4; protein melting temperature (Biolog plate: PM05): 44
